Our source for the TGI and GI50 values is PubChem BioAssay (NCI).

Some test systems named below: CAKI-1 renal; LOX IMVI melanoma; OVCAR-3 ovarian; SK-MEL-28 melanoma; SN12C renal; SW-620 colon; UACC-257 melanoma; A498 renal; HOP-92 NSCLC; HL-60(TB) leukemia.
Common to all, as to test: DTP human tumour cell line panel, 48 h

Structures are written as SMILES.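 Dose response: 5 concentrations. Exposure: 48 h. Format: 96-well plates. Endpoint: linear interpolation; highest concentration if not reached. At the GI50, growth is halved. At the TGI there is no net growth.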

A word on the TGI: it is the concentration at which net growth stops. For the compound `CCOC(=O)[C@H]1Nc2ccc(Cl)cc2[C@H]2c3ccccc3O[C@H]21`, the TGI in the assay with CAKI-1 renal, in the assay on LOX IMVI melanoma, in the assay with OVCAR-3 ovarian, with SK-MEL-28 melanoma, in the assay on SN12C renal and in the assay with SW-620 colon was more than 100 µM throughout. The TGI with UACC-257 melanoma is more than 100 µM.

On to `CN1CCC(n2[nH]c(-c3ccccc3)c(Cc3ccccc3)c2=O)CC1`, for which the TGI in the assay with A498 renal, with CAKI-1 renal, with HOP-92 NSCLC, in the assay on LOX IMVI melanoma, in the assay on OVCAR-3 ovarian and with SK-MEL-28 melanoma was more than 100 µM throughout. In addition, the TGI with SN12C renal, in the assay on SW-620 colon and with UACC-257 melanoma was more than 100 µM each time.

The GI50 is the concentration that inhibits growth by half. Turning to `OCc1ccc(Oc2c3ccccc3nc3occc23)cc1`, the GI50 in the assay on CAKI-1 renal is 18.1 µM; in the assay on HL-60(TB) leukemia, 27.2 µM; with OVCAR-3 ovarian, 22.1 µM; in the assay on SK-MEL-28 melanoma, 41.4 µM; with SN12C renal it was 24.5 µM; in the assay with UACC-257 melanoma it was 30 µM. The TGI in the assay with CAKI-1 renal is 35.8 µM; in the assay with HL-60(TB) leukemia it was 79.6 µM; with OVCAR-3 ovarian it was 39.7 µM; with SK-MEL-28 melanoma, more than 100 µM; in the assay on SN12C renal it was 62.3 µM; in the assay on UACC-257 melanoma, 74.7 µM.

`COc1ccc(-c2csc3c2-n2cccc2C3=O)cc1O`: the GI50 in the assay on A498 renal was 1.13 µM; in the assay with CAKI-1 renal it was 0.0497 µM; in the assay with HL-60(TB) leukemia, 0.0163 µM; in the assay on LOX IMVI melanoma it was less than 0.0182 µM; in the assay with OVCAR-3 ovarian, less than 0.0152 µM; with SN12C renal it was 0.0365 µM. Further, the values for the GI50 in the assay with SW-620 colon and in the assay with UACC-257 melanoma were less than 0.0122 µM and 1.36 µM, respectively. For the same compound, the TGI in the assay on A498 renal is 13.5 µM; in the assay with CAKI-1 renal, more than 63.2 µM; with HL-60(TB) leukemia, 0.0955 µM; in the assay on LOX IMVI melanoma it was more than 100 µM; in the assay on OVCAR-3 ovarian, 0.0434 µM; in the assay with SN12C renal, more than 100 µM. Besides, the TGI in the assay on SW-620 colon and in the assay with UACC-257 melanoma was more than 100 µM each time.

Turning to `Clc1cc(Cl)cc(Nc2nc3ccccc3nc2-c2cccs2)c1`, the TGI in the assay on HL-60(TB) leukemia is more than 100 µM; with HOP-92 NSCLC it was 38.1 µM; in the assay with LOX IMVI melanoma it was more than 100 µM; in the assay on OVCAR-3 ovarian, 72 µM; in the assay with SN12C renal, more than 100 µM; in the assay on SW-620 colon it was more than 100 µM. In addition, the TGI in the assay with UACC-257 melanoma turned out to be 60.4 µM.

With `CO/N=C(/COc1c(-c2ccccc2)oc2ccccc2c1=O)c1ccc(F)cc1`, the GI50 with A498 renal is 61.2 µM; with CAKI-1 renal, more than 100 µM; in the assay with HL-60(TB) leukemia, more than 100 µM; in the assay on LOX IMVI melanoma, 69.9 µM; in the assay with OVCAR-3 ovarian it was 56.7 µM; in the assay with SK-MEL-28 melanoma, more than 100 µM. In addition, the GI50 is 35.1 µM with SN12C renal, more than 100 µM in the assay on SW-620 colon and more than 100 µM in the assay on UACC-257 melanoma. Moreover, the TGI in the assay on A498 renal, with CAKI-1 renal, in the assay on HL-60(TB) leukemia, with LOX IMVI melanoma, with OVCAR-3 ovarian and in the assay on SK-MEL-28 melanoma was more than 100 µM in each case. The TGI in the assay with SN12C renal, with SW-620 colon and in the assay with UACC-257 melanoma was more than 100 µM each time.

In the case of `CC[C@@]1(O)C(=O)OCc2c1cc1n(c2=O)Cc2cc3c(NC(=O)CN)cccc3nc2-1`, the TGI is 3.27 µM in the assay with A498 renal; 2.14 µM in the assay with CAKI-1 renal; more than 100 µM in the assay with HOP-92 NSCLC; 9.34 µM with OVCAR-3 ovarian; more than 100 µM in the assay with SK-MEL-28 melanoma; 17.1 µM in the assay on SN12C renal. The TGI was more than 100 µM in the assay with SW-620 colon and 13.2 µM in the assay with UACC-257 melanoma.

Take `CCCCCCN1CCN(Cc2ccc(N(CC)CC)cc2)C(=O)C1=O`: the GI50 in the assay on A498 renal was 0.973 µM; with CAKI-1 renal, 7.23 µM; in the assay on HOP-92 NSCLC, 4.21 µM; in the assay with LOX IMVI melanoma, 7.95 µM; with SK-MEL-28 melanoma, 7.17 µM; with SN12C renal, 5.19 µM. Moreover, the GI50 in the assay with SW-620 colon is 3.07 µM; in the assay with UACC-257 melanoma it was 16.9 µM. Moreover, the TGI with A498 renal is 5.77 µM; in the assay on CAKI-1 renal, more than 100 µM; in the assay with HOP-92 NSCLC, 38.2 µM; in the assay on LOX IMVI melanoma, more than 100 µM; with SK-MEL-28 melanoma, more than 100 µM; in the assay on SN12C renal, 93.9 µM. For the same compound, the TGI in the assay with SW-620 colon and with UACC-257 melanoma was more than 100 µM throughout.

For `O=C(O)c1ccc(C2C3C=CC(C3)C2[N+](=O)[O-])cc1` (configuration not stated), the TGI in the assay with A498 renal, in the assay on CAKI-1 renal, with HL-60(TB) leukemia, in the assay on LOX IMVI melanoma, in the assay on OVCAR-3 ovarian and in the assay with SK-MEL-28 melanoma was more than 100 µM each time. The TGI with SN12C renal, with SW-620 colon and in the assay with UACC-257 melanoma was more than 100 µM throughout.

Consider `NC(=O)NCCSC1CCCCC1O` (configuration not stated), for which the TGI in the assay with A498 renal, in the assay with CAKI-1 renal, in the assay with HOP-92 NSCLC, in the assay on LOX IMVI melanoma, in the assay with OVCAR-3 ovarian and with SK-MEL-28 melanoma was more than 100 µM in each case. Moreover, the TGI in the assay on SN12C renal, with SW-620 colon and in the assay on UACC-257 melanoma was more than 100 µM in each case.

With `C=C1C(=O)O[C@H]2C[C@@H]1CCC1(C)OC1CC/C(C)=C/CC[C@H]2C` (some centres not stated), the GI50 with A498 renal was 17.7 µM; in the assay with LOX IMVI melanoma it was 24 µM; in the assay on OVCAR-3 ovarian it was 19.1 µM; in the assay on SN12C renal, 19 µM; in the assay with SW-620 colon, 19.2 µM; with UACC-257 melanoma, 19.2 µM. The TGI in the assay with A498 renal came to 33.6 µM; with LOX IMVI melanoma, 38.6 µM; in the assay with OVCAR-3 ovarian, 35.1 µM; in the assay with SN12C renal it was 35.5 µM; in the assay on SW-620 colon, 36.9 µM; in the assay on UACC-257 melanoma it was 37.2 µM.

With `COc1cc(OC)cc(-c2cncn2-c2ccc(-c3nc4cc(OC)cc(OC)c4s3)cc2)c1`, the GI50 in the assay on A498 renal was 3.15 µM; in the assay on CAKI-1 renal, 2.13 µM; with LOX IMVI melanoma, 5.48 µM; in the assay with OVCAR-3 ovarian, 2.87 µM; in the assay on SK-MEL-28 melanoma, more than 100 µM; with SN12C renal, more than 100 µM. The GI50 with UACC-257 melanoma was more than 100 µM. Besides, the TGI with A498 renal, in the assay with CAKI-1 renal, in the assay with LOX IMVI melanoma, with OVCAR-3 ovarian, in the assay with SK-MEL-28 melanoma and in the assay with SN12C renal was more than 100 µM throughout. In the assay with UACC-257 melanoma, the TGI is more than 100 µM.
